Measurements taken from patent EP0965346A2, “Use of acetylated mannan derivatives for treating chronic respiratory diseases” (CARRINGTON LABORATORIES, INC., priority 1991, dated 1993).

Experiments:
HIV = test: Phase II double-blind study of acemannan alone and with AZT; format: in vivo; conditions: ARC patients, 24 weeks
Method: Forty-seven HIV+ patients (23 asymptomatic patients, 24 ARC patients) participated in a double-blind randomized phase II study of acemannan. The protocol was approved by the relevant ethical committees of the Hospital St. Pierre in Brussels, Belgium. In order to evaluate safety and tolerance, with or without concomitant AZT therapy, acemannan was administered during 24 weeks at a daily dose of 1000 mg (2 capsules of 125 mg, 4 times daily). The 23 asymptomatic patients were blindly allocated to receive either acemannan (11 patients, group 1) or placebo (12 patients, group 2). Of the 24 ARC patients who received 1000 mg AZT daily during the study, 12 patients (group 3) also received acemannan 1000 mg (2 capsules of 125 mg, 4 times daily) and 12 patients (group 4) also received placebo.

[1] = test system: HTLV-IIIB strain of HIV-1; test: Viability (MTT) of HIV-1-infected MT-2 cells, AZT-acemannan checkerboard; format: cell-based
Method: Virus Strains - The HTLV-IIIB strain of HIV-1 was obtained from Dr. R. Gallo, NIH, Bethesda, Maryland. Viral stocks were prepared by propagating the virus in H9 lymphoid cells. A stock preparation of the virus was stored at -80°C. The 50% tissue culture infective dose (TCID50)/ml of cell-free virus pool stock was determined by end-point titration using MT-2 cells. Multiplicity of infection (MOI) was determined by the method of Reed and Muench.
Cell Lines - MT-2 cells were propagated in RPMI-1640 supplemented with 2 mM L-glutamine and 15% (v/v) fetal bovine serum. MT-2 cells naturally express CD4 on their surface and are thus good target cells for HIV-1 infection. In addition, they rapidly undergo cytolysis at low levels of virus replication.
Primary testing of antiviral activity - MT-2 cells were first treated with polybrene (2 mg/ml) for 30 min and then infected with HIV at a MOI of 0.03. After virus absorption, the cells were pelleted and resuspended in complete medium. […] Parallel assays were performed in triplicate, and drug cytotoxicity was measured at parallel concentrations in duplicate. […] On day 7 post-infection, cell viability was measured by the addition of MTT (450 µg/ml) to the test plates. […] Plates were read at a wavelength of 570 nm on a Vmax plate reader (Molecular Devices, Inc.). The percent change in cell viability was calculated using the following formula: % change in cell viability =((TI-TO)-(OI-TO))/((OO-TO)-(OI-TO))x 100 [formula] where: • TI is the optical density (OD) in treated, infected cells, • TO is the OD in treated, uninfected cells, • OI is the OD in untreated, infected cells, and • OO is the OD in untreated, uninfected cells.
Antiviral activity of acemannan-AZT combinations - Antiviral activity of acemannan in combination with AZT at various concentrations was evaluated using the microtiter infection assay described above. […] Combinations were evaluated in duplicate, and treated uninfected controls were used to determine drug cytotoxicity. Each compound was also evaluated alone at non-cytotoxic concentrations. […]

Structure (SMILES): Cc1cn([C@H]2C[C@H](N=[N+]=[N-])[C@@H](CO)O2)c(=O)[nH]c1=O [AZT, Zidovudine]
- patients who developed AIDS (HIV; 12 per group): 2 patients
- mean Karnofsky score at exit (HIV; AZT 1000 mg daily, acemannan 1000 mg daily, entry 84 (combination), 81 (AZT alone)): 83
- mean CD4 at exit (HIV; entry 263/mm3 (combination), 145/mm3 (AZT alone)): 252 /mm3
- protection ([1]; 0.01 µg/ml AZT alone): neither of which was protective on its own
- protection ([1]; 0.32 µg/ml AZT alone): 65%
- maximum protection ([1]; AZT alone, 0.03 to 0.32 µg/ml, MOI 0.03): 60-67%
